Source: US9555040B2, “Methods of treating proliferative diseases” (Ambit Biosciences Corporation, priority 2009, dated 2017)

How the values were obtained:
[1] = Animal toxicology studies; format: in vivo
[2] = Phase I clinical trial: safety, tolerability, dose limiting toxicity; format: in vivo, human
From the text: This study was the first human clinical trial of the compound of Formula I or a pharmaceutically acceptable salt or solvate thereof in humans having relapsed or refractory acute myeloid leukemia. The study was open labeled and designed to determine the safety, tolerability, dose limiting toxicity (DLT), pharmacokinetics and pharmacodynamics of escalating doses.
The study included adult patients with relapsed or refractory AML, or unsuitable for induction chemotherapy. Demographics and baseline characteristics were as follows: median age was 60 years, with a range of 23-86 years. Sixty percent of the patients were male. […] Eleven (15%) patients had prior allogeneic hematopoietic stem cell transplant (HSCT) and 13 (17%) patients had secondary AML with antecedent MDS or MDS/MPD. A total of 20 patients had FLT3 mutations (17 ITD and 3 D835), 43 were wild-type, and 13 were undetermined.
Patients with clinical benefit were allowed to continue for additional cycles at the discretion of the investigator. The protocol was subsequently amended to allow for continuous dosing of the compound starting at 200 mg on Day 1. In addition to patients included in the 200 mg (17 patients) and 300 mg (8 patients) continuous dosing cohort, there were at least 8 patients who, at the investigators discretion and per protocol, received continuous dosing after cycle 1 of intermittent dosing ranging from 19-187 days.
In addition, the safety profile was similar between patients receiving continuous dosing and those on the intermittent schedule. These included general disorders (e.g., pyrexia and fatigue), gastrointestinal disorders (e.g., nausea, diarrhea and vomiting) and hematologic disorders (eg, anemia, neutropenia and thrombocytopenia).
Out of the 76 patients treated with the compound in this study, 38 patients (50%) reported a total of 94 serious adverse events (SAEs) (defined as CTC Grade 3 or greater). The majority of the SAEs were considered by the investigator to be not related to study treatment. Only 6 patients (7.9%) reported SAEs that were initially considered to be related to treatment with the compound. These included one patient with lung infection, one patient with vomiting and one patient with nausea, anorexia, and upper abdominal pain. The investigator subsequently revised the event of anorexia for the patient to non-serious. In addition, three patients were noted by the site investigators using local ECG analysis to have reported Grade 3 QTc prolongation of >500 ms which was considered to be a dose-limiting toxicity for the study according to the protocol.
Based on the site reported dose-limiting toxicity of Grade 3 QTc prolongation, a detailed evaluation of the cardiac safety of the compound was conducted. As defined in the protocol, a single 12-lead electrocardiogram (ECG) had been performed using standardized equipment at the site at Visits 1 (screen), 2 (Baseline—at Hours 0, 2, and 4), 4 (Day 8 at Hours 0 and 4), and depending on the version of the protocol active at the time of assessment for each patient, 6 (Day 14 or 15), 7 (Day 21 or 22), 8 (Day 28 or 29), 9 (Day 36), 10 (Day 43), 11 (Day 50), 12 (Day 57) and at the end of the study or early termination. ECG assessments and interpretations initially were performed by the site's cardiologist or other qualified site personnel. To improve upon the accuracy of these locally-analyzed data, a central digitized blinded analysis of all ECGs collected to date was undertaken by a core ECG laboratory (EResearchTechnology in Philadelphia, Pa.). Due to some issues with readability, 72 patients (out of 76 patients enrolled in the study) were included in this analysis. […] The phase I study was not designed to define the ECG effects of the compound, which will be more closely monitored in the phase II study.

[3] = Phase I clinical trial: plasma pharmacokinetics; format: in vivo, human
Method: In addition, plasma samples were collected on day 15 (˜24 hrs post final dose) to evaluate steady-state trough levels. Bioanalysis of the compound was initially conducted at Consolidated Laboratory Services (CLS), Van Nuys, Calif. […] The coefficient of variation (CV %) for AUCO-24 at steady-state is modest at the lowest dose of 12 mg (33%) and high for the 450 mg cohort (82%). While the variability tended to be higher at higher doses, there was not a clear relationship between variability and either dose or […].
This analysis was conducted at MicroConstants, San Diego, Calif.

[4] = system: relapsed or refractory acute myeloid leukemia; assay: Phase I clinical trial: efficacy, responses per modified Cheson criteria; format: in vivo, human
Method: The study was open labeled and designed to determine the safety, tolerability, dose limiting toxicity (DLT), pharmacokinetics and pharmacodynamics of escalating doses.
The study included adult patients with relapsed or refractory AML, or unsuitable for induction chemotherapy.
Patients with clinical benefit were allowed to continue for additional cycles at the discretion of the investigator. The protocol was subsequently amended to allow for continuous dosing of the compound starting at 200 mg on Day 1.
Preliminary response data was evaluated in all 76 patients treated with the compound.
Responses were defined per modified Cheson criteria.

[5] = system: pSTAT5; assay: Pharmacodynamics: pSTAT5 in patient samples; format: in vivo, human; settings: subset of 17 patients, very preliminary
From the text: STATS is a downstream signaling pathway activated by FLT3 following binding of FLT3 ligand leading to receptor dimerization, increased kinase activity and activation of downstream signaling pathways including STATS.

[6] = FLT3-ITD patients, 200 mg continuous dosing (n=5)
[7] = patients with FLT3-ITD mutation (n=17)

CC(C)(C)c1cc(NC(=O)Nc2ccc(-c3cn4c(n3)sc3cc(OCCN5CCOCC5)ccc34)cc2)no1 [compound of formula I, N-(5-tert-butyl-isoxazol-3-yl)-N′-{4-[7-(2-morpholin-4-yl-ethoxy)imidazo[2,1-b][1,3]benzothiazol-2-yl]phenyl}urea]
target organ toxicity [1]: Bone marrow hypocellularity
30-day treatment-related mortality ([2]; 76 patients, to date): no 30-day treatment-related mortality
patients who died during the study ([2]; all deaths disease or comorbidity associated, not treatment related): 12 patients
grade of the majority of treatment-related adverse events ([2]; both, human, in vivo): CTC Grade 1 and 2
patients reporting SAEs initially considered related to treatment ([2]; both, human, in vivo): 7.9%
patients reporting serious adverse events (CTC Grade 3 or greater) ([2]; both, human, in vivo): 50%
total number of serious adverse events reported ([2]; both, human, in vivo): 94
liver or kidney abnormalities as drug-related serious adverse events (BUN, creatinine, ALT, AST, ALP, bilirubin) ([2]; human, in vivo): no liver or kidney abnormalities
patients with Grade 3 QTc prolongation of >500 ms (dose-limiting toxicity) ([2]; human, in vivo): three
dose dependence of steady-state plasma exposure (AUC) ([3]; human, in vivo): increased in a dose proportional manner
peak and trough variation of plasma levels ([3]; human, in vivo): minimal peak and trough variation
time to steady-state plasma exposure ([3]; human, in vivo): ≤ 8 days
coefficient of variation (CV %) for AUC0-24 at steady-state ([3]; human, in vivo, 12 mg): 33%
coefficient of variation (CV %) for AUC0-24 at steady-state ([3]; human, in vivo, 450 mg): 82%
half-life ([3]; human, in vivo, effective half-life): ~36 h
oral bioavailability ([3]; human, in vivo, po): orally bioavailable
half-life ([3]; human, in vivo, terminal T1/2): 31.2 h
bone marrow responses within the first 29 days of treatment (Cycle 1) ([4]; 15/22 responders): 68%
CR [4, 6]: 1 patients
CRi [4, 6]: 1 patients
CRp [4, 6]: 1 patients
PR [4, 6]: 2 patients
overall response rate (CR+CRp+CRi+PR) ([4]; FLT3-ITD patients, 200 mg continuous dosing, 5/5): 100%
CR with complete hematologic recovery ([4]; all 76 patients): 2 patients
CR with incomplete platelet and neutrophil recovery (CRi) ([4]; all 76 patients): 4 patients
CR with incomplete platelet recovery (CRp) ([4]; all 76 patients): 4 patients
patients achieving complete remission (CR, all types) ([4]; all 76 patients): Ten
patients with partial remission (PR) ([4]; all 76 patients): Fourteen
peripheral blast reduction (>25% at baseline with >50% decrease post-treatment to 0-25%) ([4]; all patients): most patients had a peripheral blast reduction
overall response (CR+PR) ([4]; all patients, 12 mg-450 mg, 24/76): 32%
patients reporting a response after Cycle 2 ([4]; of the remaining 7 responders): 3 patients
patients reporting a response within 57 days (Cycle 2) ([4]; of the remaining 7 responders): 4 patients
CR [4, 7]: 1 patients
CRi [4, 7]: 3 patients
CRp [4, 7]: 1 patients
PR [4, 7]: 6 patients
overall response rate ([4]; patients with FLT3-ITD mutation, 11/17): 65%
median duration of remission ([4]; range, 4 to 61+ weeks): 14.1 weeks
effect on pSTAT5 [5]: dose-dependent effect is consistent with that observed with pFLT3

CC(C)(CO)c1cc(NC(=O)Nc2ccc(-c3cn4c(n3)sc3cc(OCCN5CCOCC5)ccc34)cc2)no1 [compound of formula II]
average steady state plasma ratio of formula II/I ([3]; human plasma, n=60): 0.4
plasma ratio of compounds of formula II/I, highest in one patient ([3]; human plasma, n=60): ≤ 3.14
steady-state plasma level ([3]; patients dosed at 200 mg of the compound of formula I): ~300 ng/mL
